Measured values published in article PMC8587047, “Synthesis and Biological Evaluation of Harmirins, Novel Harmine–Coumarin Hybrids as Potential Anticancer Agents” (Molecules, 2021).
Entries after “also recorded” stand apart in the source; their conditions may differ.

Legend:
HepG2 = experiment: MTT cytotoxicity assay, HepG2; assay type: cell-based; details: Homo sapiens, HepG2; MTT, 72 h, mean ± SD; read-out: IC50 HepG2
Source text: (§1) We selected four different cancer cell lines for antiproliferative screening in vitro, which we believed would provide sufficient data on the anticancer potential of the prepared harmirins (hepatocellular carcinoma—HepG2, colorectal adenocarcinoma, Dukes’ type C—SW620, colorectal carcinoma—HCT116, and breast adenocarcinoma—MCF-7). Additionally, we included one non-cancer cell line (embryonic kidney—HEK293T) to evaluate harmirins’ selectivity. The commonly used anticancer drug 5-FU and harmine were used as positive controls. Pre-screening was performed using 50 µM of the tested compound. Only compounds that led to more than 50% reduction in mitochondrial metabolic activity at 50 µM concentration were selected for further analysis. The selectivity index (SI) for each harmirin was calculated as a fractional ratio between the IC50 values for HEK293T and the cancer cell line MCF-7 or HCT116 since these two cell lines were the most susceptible to harmirins.
(§2) The experiments were carried out on five human cell lines purchased from American Type Culture Collection (ATCC, PO BOX 1549, manassas, VA 20108, USA): HepG2 (hepatocellular carcinoma; ATCC® HB-8065™), SW620 (colorectal adenocarcinoma; ATCC® CCL-227™), HCT116 (colorectal carcinoma ATCC® CCL-247™), MCF-7 (breast adenocarcinoma, ATCC® HTB-22™), and HEK293T (embryonic kidney cells; ATCC® CRL-3216™). All cell lines were cultured as monolayers and maintained in Dulbecco’s modified Eagle medium (DMEM) (Capricorn Scientific, USA), supplemented with 10% fetal bovine serum (FBS) (Capricorn Scientific, USA), 100 U/mL penicillin, and 100 µg/mL streptomycin (Capricorn Scientific, USA) in a humidified atmosphere with 5% CO2 at 37 °C. Cells were seeded in 96-well plates (Corning, Durham, NC, USA) at 5000–7000 cells per well (depending on the cell doubling time of a specific cell line) in 0.1 mL media and cultured for 24 h. The next day, the medium was aspirated, and cells were treated for 72 h. Only the compounds that led to more than a 50% reduction in mitochondrial metabolic activity at a concentration of 50 µM were selected for further analysis. The following concentrations of selected compounds were used: 25, 10, 5, and 1 µM. Working dilutions were freshly prepared on the day of the testing. A fresh growth medium was added to untreated control cells, which were defined as 100% viable. DMSO (0.13%) in DMEM was considered a negative control. 5-Fluorouracil (5-FU) and harmine were used as positive controls. At the end of treatment, media was removed, and cells were incubated for 1 h with 0.5 mg/mL MTT (Abcam, Cambridge, MA, USA) dissolved in serum-deprived DMEM. The absorbance was directly proportional to cell viability. The MTT-containing media was then removed, and 0.1 mL isopropanol was added per well to lyse cells and dissolve formazan. The optical density was measured at 570 nm using a microplate reader (VICTOR3, PerkinElmer). Each test point was performed in triplicate. The IC50 values (concentration required to decrease viability by 50%) were calculated by using nonlinear regression on the sigmoidal dose–response plots and are expressed as mean ± SD.

HCT116 = experiment: MTT cytotoxicity assay, HCT116; assay type: cell-based, human
Source text: as §1, §2

MCF-7 cells [1] = experiment: Cell localization by fluorescence microscopy; assay type: cell-based, human; details: 10 µM, 30 min, MCF-7, DAPI filter
Description: We further examined the intracellular distribution of the compound 12b in MCF-7 cells, based on its fluorescence properties. Therefore, we incubated MCF-7 cells for 30 min with the tested compound 12b and analyzed its localization by fluorescence microscopy (Figure 3). No autofluorescence was detected by examining untreated cells under typical imaging conditions.
The MCF-7 cells were seeded on round microscopic coverslips placed in 24-well-plates (5 × 10^4 cells per well) and grown at 37 °C and 5% CO2 for 24 h in DMEM supplemented with FBS, penicillin, and streptomycin, as described above. Cells were then incubated with compound 12b (10 µM) for 30 min. Afterward, the medium was discharged, coverslips rinsed twice with PBS, placed on the microscopic slides, and immediately analyzed. The uptake and intracellular distribution of the tested derivative were analyzed under a fluorescence microscope (Olympus BX51) at 400 × magnification, using a DAPI filter. Images were captured with an Olympus DP70 Digital Camera.

SW620 = experiment: MTT cytotoxicity assay, SW620; assay type: cell-based; details: Homo sapiens, SW-620; MTT, 72 h, mean ± SD; read-out: IC50 SW620
Source text: as §1, §2

MCF-7 cells [2] = experiment: Cell cycle analysis by flow cytometry (PI); assay type: cell-based, human; details: 12b 10 µM, harmine 20 µM
Description: To gain further insight into the potential mechanism of activity of 12b, and to examine whether and how the cell growth inhibition was associated with cell cycle regulation, we assessed its influence on the cell cycle of MCF-7 cells, 24 and 48 h after the treatment and compared it with the influence of the reference compound harmine (Figure 4).
MCF-7 cells were seeded onto 6-well plates (3 × 10^5 cells per well). After 24 h, 12b was added at 10 µM concentration and harmine at 20 µM concentration. After 24 h or 48 h, the attached cells were trypsinized, combined with floating cells, washed with phosphate buffer saline (PBS), fixed with 70% ethanol, and stored at −20 °C. Immediately before analysis, the cells were washed with PBS and stained with 50 μg/mL of propidium iodide (PI) with the addition of 0.1 μg/μL of RNAse A. The stained cells were then analyzed by BD FACScalibur flow cytometer (20,000 counts were measured). The percentage of cells in each cell cycle phase was determined using FlowJo software (TreeStar Inc., USA). The tests were performed in duplicate and repeated in three separate experiments.

HEK293T = experiment: MTT cytotoxicity assay, HEK293T (non-cancer); assay type: cell-based, human
Source text: as §1, §2

MCF-7 = experiment: MTT cytotoxicity assay, MCF-7; assay type: cell-based, human
Source text: as §1, §2

[3] = after 24 h (12b: persisted after 48 h)

## Cc1ccc2oc(=O)cc(-n3cc(COc4ccc5c(c4)[nH]c4c(C)nccc45)nn3)c2c1 [12b, 6-Methyl-4-(4-(((1-methyl-9H-pyrido[3,4-b]indol-7-yl)oxy)methyl)-1H-1,2,3-triazol-1-yl)-2H-chromen-2-one]
HepG2
  IC50: 19.5 ± 1.5 µM
HCT116; Homo sapiens, HCT-116, MTT, 72 h, mean ± SD, read-out: IC50 HCT116
  IC50: 4.7 ± 0.6 µM
HCT116; ratio IC50 HEK293T / IC50 HCT116
  SI (HCT116): >10.6
MCF-7 cells [1]
  intracellular distribution: predominantly cytoplasmic distribution; also recorded: localized exclusively in the cytoplasm; also recorded: localization within the cytoplasm, but not within the nucleus
SW620
  IC50: 20.8 ± 0.4 µM
other
  melting point: 225.5 to 229.5 °C (dec.)
MCF-7 cells [2]; 48 h, data not shown
  accumulation of cells in the subG1 phase (apoptotic cells): up to 10%
MCF-7 cells [2]; [3]
  effect on G1 phase of cell cycle: strong G1 arrest
  effect on percentage of cells in S phase: reduced the percentage of cells in the S phase; also recorded: drastic reduction in the percentage of cells in the S phase
HEK293T; Homo sapiens, HEK-293T, MTT, 72 h, mean ± SD, non-cancer cell line, read-out: IC50 Hek293T
  IC50: > 50 µM
HEK293T; cancer cell line not specified (MCF-7 or HCT116)
  SIs (selectivity towards cancer cells in comparison to HEK293T): > 7.2
MCF-7; Homo sapiens, MCF7, MTT, 72 h, mean ± SD, read-out: IC50 MCF-7
  IC50: 6.9 ± 0.7 µM
MCF-7; compared with 5-FU IC50
  activity against MCF-7, fold stronger than 5-FU: 3.4 fold
MCF-7; compared with harmine IC50
  activity against MCF-7, fold higher than harmine: twofold
MCF-7; ratio IC50 HEK293T / IC50 MCF-7
  SI (MCF-7): >7.2
